Experimental data published in US7659404B2, “Broad spectrum 2-(substituted-amino)-benzothiazole sulfonamide HIV protease inhibitors” (Tibotec Pharmaceuticals Ltd., priority 2001, dated 2010).
Like-named read-outs stand apart in the source and are kept apart here.

Columns and labels:
virus strain S (R13080) = experiment: microbe, parasite or virus in culture; assay type: cell-based, HIV; details: for EC50: Human immunodeficiency virus 1, MT4, read-out: HIV-AVE-MT4-MTT-R13080-2-002 pEC50, virus strain S (R13080), MT4 cells, MTT (converted); for HIV-AVE-MT4-MTT-R13080-2-002 pEC50: virus strain S (R13080), MT4 cells
Protocol: (§1) HIV- or mock-infected MT4 cells were incubated for five days in the presence of various concentrations of the inhibitor. […] Cell viability is measured by measuring the concentration of MTT, a yellow, water soluble tetrazolium dye that is converted to a purple, water insoluble formazan in the mitochondria of living cells only. Upon solubilization of the resulting formazan crystals with isopropanol, the absorbance of the solution is monitored at 540 nm. The values correlate directly to the number of living cells remaining in the culture at the completion of the five day incubation. The inhibitory activity of the compound was monitored on the virus-infected cells and was expressed as EC50 and EC90. These values represent the amount of the compound required to protect 50% and 90%, respectively, of the cells from the cytopathogenic effect of the virus. The toxicity of the compound was measured on the mock-infected cells and was expressed as CC50, which represents the concentration of compound required to inhibit the growth of the cells by 50%. The selectivity index (SI) (ratio CC50/EC50) is an indication of the selectivity of the anti-HIV activity of the inhibitor.
(§2) Because of the increasing emergence of drug resistant HIV strains, the present compounds were tested for their potency against clinically isolated HIV strains harboring several mutations.
(§3) As a measure of the broad spectrum activity of the present compounds, the fold resistance (FR) defined as FR=EC50(mutant strain)/EC50(HIV-1 strain LAI).

virus strain F (R13025) = experiment: microbe, parasite or virus in culture; assay type: cell-based, HIV; details: for EC50: Human immunodeficiency virus 1, MT4, read-out: HIV-AVE-MT4-MTT-R13025-2-002 pEC50, virus strain F (R13025), MT4 cells, MTT (converted); for HIV-AVE-MT4-MTT-R13025-2-002 pEC50: virus strain F (R13025), MT4 cells
Protocol: as §1, §2, §3

wild type virus (IIIB) = experiment: HIV-AVE-MT4-MTT cellular assay, wild type virus (IIIB); assay type: cell-based; details: for EC50: Human immunodeficiency virus 1, IIIB; for HIV-AVE-MT4-MTT-IIIB-2-002 pEC50: wild type virus (IIIB)
Protocol: HIV- or mock-infected MT4 cells were incubated for five days in the presence of various concentrations of the inhibitor. At the end of the incubation period, all HIV-infected cells have been killed by the replicating virus in the control cultures in the absence of any inhibitor. Cell viability is measured by measuring the concentration of MTT, a yellow, water soluble tetrazolium dye that is converted to a purple, water insoluble formazan in the mitochondria of living cells only. Upon solubilization of the resulting formazan crystals with isopropanol, the absorbance of the solution is monitored at 540 nm. The values correlate directly to the number of living cells remaining in the culture at the completion of the five day incubation. The inhibitory activity of the compound was monitored on the virus-infected cells and was expressed as EC50 and EC90. These values represent the amount of the compound required to protect 50% and 90%, respectively, of the cells from the cytopathogenic effect of the virus. The toxicity of the compound was measured on the mock-infected cells and was expressed as CC50, which represents the concentration of compound required to inhibit the growth of the cells by 50%. The selectivity index (SI) (ratio CC50/EC50) is an indication of the selectivity of the anti-HIV activity of the inhibitor.

[1] = MT4, wild type virus (IIIB), MT4 cells, MTT, read-out: HIV-AVE-MT4-MTT-IIIB-2-002 pEC50 (converted)

Row | Compound | EC50 (virus strain S (R13080)) | EC50 (virus strain F (R13025)) | EC50 (wild type virus (IIIB); [1]) | HIV-AVE-MT4-MTT-R13080-2-002 pEC50 (virus strain S (R13080)) | HIV-AVE-MT4-MTT-R13025-2-002 pEC50 (virus strain F (R13025)) | HIV-AVE-MT4-MTT-IIIB-2-002 pEC50 (wild type virus (IIIB); MT4 cells, MTT) | EC50 (wild type virus (IIIB); MT4, read-out: HIV-AVE-MT4-MTT-IIIB-2-002 pEC50 (converted))
1 | CC(C)CN(C[C@@H](O)[C@H](Cc1ccccc1)NC(=O)C(NC(=O)CNCc1cccc(F)c1)C(C)(C)C)S(=O)(=O)c1ccc2nc(NCCCN(C)C)sc2c1 (stereo partly drawn) [Compound 188] | 0.132 µM | 0.0933 µM | 0.2 µM |  |  |  | 
2 | Cc1cccc(C)c1OCC(=O)N[C@@H](Cc1ccccc1)[C@H](O)CN(CC(C)C)S(=O)(=O)c1ccc2nc(NC(=O)c3cccc(O)c3C)sc2c1 [Compound 117] | 0.191 µM | 0.0355 µM | 0.0479 µM |  |  |  | 
3 | CC(C)CN(C[C@@H](O)[C@H](Cc1ccccc1)NC(=O)OCc1cncs1)S(=O)(=O)c1ccc2nc(N(C)C(=O)CN(C)CCCN3CCCC3)sc2c1 [Compound 175] |  |  |  | 5.5 | 6.03 | 7.3 | 
4 | Cc1cccc(C)c1OCC(=O)N[C@@H](Cc1ccccc1)[C@H](O)CN(CC(C)C)S(=O)(=O)c1ccc2nc(N3CCCC3C(=O)O)sc2c1 (stereo partly drawn) [Compound 139] | 10 µM | 3.09 µM | 2.09 µM |  |  |  | 
5 | CC(C)CN(C[C@@H](O)[C@H](Cc1ccccc1)NC(=O)OCc1cncs1)S(=O)(=O)c1ccc2nc(NC(=O)OC(C)C)sc2c1 [Compound 167] | 0.141 µM | 0.0309 µM | 0.0049 µM |  |  |  | 
6 | CC(C)CN(C[C@@H](O)[C@H](Cc1ccccc1)NC(=O)OCc1cncs1)S(=O)(=O)c1ccc2nc(N3CCN(C)C3=O)sc2c1 [Compound 151] | 2.69 µM | 0.813 µM | 0.107 µM |  |  |  | 
7 | CC(C)CN(C[C@@H](O)[C@H](Cc1ccccc1)NC(=O)OCc1cncs1)S(=O)(=O)c1ccc2nc(N(C)C(=O)CN3CCN(C)CC3)sc2c1 [Compound 173] |  |  |  | 6.81 | 7.52 | 8.25 | 
8 | CC(C)CN(C[C@@H](O)[C@H](Cc1ccccc1)NC(=O)O[C@H]1CO[C@H]2OCC[C@H]21)S(=O)(=O)c1ccc2nc(NCCN3CCCC3)sc2c1 [Compound 184] | 0.0269 µM | 0.00447 µM |  |  |  |  | 0.0174 µM
9 | CCN1CCCC1CNc1nc2ccc(S(=O)(=O)N(CC(C)C)C[C@@H](O)[C@H](Cc3ccccc3)NC(=O)O[C@H]3CO[C@H]4OCC[C@H]43)cc2s1 (stereo partly drawn) [Compound 186] | 0.0288 µM | 0.00661 µM | 0.00617 µM |  |  |  | 
10 | CC(=O)Nc1nc2ccc(S(=O)(=O)N(CC(C)C)C[C@@H](O)[C@H](Cc3ccccc3)NC(=O)OCc3cncs3)cc2s1 [Compound 169] | 0.0355 µM | 0.00676 µM | 0.00851 µM |  |  |  | 
11 | CC(C)COC(=O)Nc1nc2ccc(S(=O)(=O)N(CC(C)C)C[C@@H](O)[C@H](Cc3ccccc3)NC(=O)OCc3cncs3)cc2s1 [Compound 171] | 0.851 µM | 0.186 µM | 0.0513 µM |  |  |  | 
12 | CC(C)CN(C[C@@H](O)[C@H](Cc1ccccc1)NC(=O)OCc1cncs1)S(=O)(=O)c1ccc2nc(NC(=O)c3ccccn3)sc2c1 [Compound 165] | 0.631 µM | 0.123 µM | 0.0447 µM |  |  |  | 
13 | CC(C)CN(C[C@@H](O)[C@H](Cc1ccccc1)NC(=O)O[C@H]1CO[C@H]2OCC[C@H]21)S(=O)(=O)c1ccc2nc(N(CCN3CCCC3)C(=O)OC3CO[C@@H]4OCO[C@H]34)sc2c1 (stereo partly drawn) [Compound 178] | 0.0339 µM | 0.0107 µM | 0.0174 µM |  |  |  | 
14 | CC(C)CN(C[C@@H](O)[C@H](Cc1ccccc1)NC(=O)OC(C)(C)C)S(=O)(=O)c1ccc2nc(NCCN3CCCC3)sc2c1 [Compound 126] | 10 µM | 3.16 µM | 0.049 µM |  |  |  | 
15 | CC(C)CN(C[C@@H](O)[C@H](Cc1ccccc1)NC(=O)O[C@H]1CO[C@H]2OCC[C@H]21)S(=O)(=O)c1ccc2nc(NCCN)sc2c1 [Compound 185] | 0.0347 µM | 0.0331 µM | 0.0457 µM |  |  |  | 
16 | CC(C)CN(C[C@@H](O)[C@H](Cc1ccccc1)NC(=O)O[C@H]1CO[C@H]2OCC[C@H]21)S(=O)(=O)c1ccc2nc(N(C)CCN3CCCC3)sc2c1 [Compound 110] | 1.55 µM | 0.676 µM | 0.00813 µM |  |  |  | 
17 | CC(C)CN(C[C@@H](O)[C@H](Cc1ccccc1)NC(=O)OCc1cncs1)S(=O)(=O)c1ccc2nc(NC(=O)C3CCCN(C)C3)sc2c1 (stereo partly drawn) [Compound 183] | 0.00708 µM | 0.0017 µM | 0.00355 µM |  |  |  | 
18 | CC(C)CN(C[C@@H](O)[C@H](Cc1ccccc1)NC(=O)OCc1cncs1)S(=O)(=O)c1ccc2nc(N(C)C(=O)c3cc(ON)cc(ON)c3)sc2c1 [Compound 152] | 1.74 µM | 0.562 µM | 0.0331 µM |  |  |  | 
19 | CC(C)CN(C[C@@H](O)[C@H](Cc1ccccc1)NC(=O)OCc1cncs1)S(=O)(=O)c1ccc2nc(NC(=O)CN3CCNCC3)sc2c1 [Compound 155] |  | 0.0245 µM | 0.0427 µM | 7.49 |  |  | 
20 | CC(C)CN(C[C@@H](O)[C@H](Cc1ccccc1)NC(=O)OCc1cncs1)S(=O)(=O)c1ccc2nc(NC(=O)CN3CCN(C)CC3)sc2c1 [Compound 159] |  |  |  | 7.46 | 7.78 | 8.1 | 
21 | CC(C)CN(C[C@@H](O)[C@H](Cc1ccccc1)NC(=O)O[C@H]1CO[C@H]2OCC[C@H]21)S(=O)(=O)c1ccc2nc(N3CCNC3=O)sc2c1 [Compound 106] | 0.219 µM | 0.055 µM | 0.011 µM |  |  |  | 
22 | CC(C)CN(C[C@@H](O)[C@H](Cc1ccccc1)NC(=O)OCc1cncs1)S(=O)(=O)c1ccc2nc(NC(=O)C3CCC(=O)N3)sc2c1 (stereo partly drawn) [Compound 161] | 0.0339 µM | 0.0174 µM | 0.00912 µM |  |  |  | 
23 | CCOC(=O)Nc1nc2ccc(S(=O)(=O)N(CC(C)C)C[C@@H](O)[C@H](Cc3ccccc3)NC(=O)OCc3cncs3)cc2s1 [Compound 170] | 0.162 µM | 0.0174 µM | 0.00759 µM |  |  |  | 
24 | CC(=O)NCCNc1nc2ccc(S(=O)(=O)N(CC(C)C)C[C@@H](O)[C@H](Cc3ccccc3)NC(=O)OC(C)(C)C)cc2s1 [Compound 121] | 10 µM | 2.82 µM | 0.0209 µM |  |  |  | 
25 | CC(C)CN(C[C@@H](O)[C@H](Cc1ccccc1)NC(=O)O[C@H]1CCOC1)S(=O)(=O)c1ccc2nc(NC(=O)CN3CCCC3)sc2c1 [Compound 100] | 0.0708 µM | 0.0437 µM | 0.00132 µM |  |  |  | 
26 | CC(C)CN(C[C@@H](O)[C@H](Cc1ccccc1)NC(=O)OCc1cncs1)S(=O)(=O)c1ccc2nc(NC(=O)CN3CCOCC3)sc2c1 [Compound 158] | 0.0302 µM | 0.00794 µM | 0.00331 µM |  |  |  | 
27 | CC(C)CN(C[C@@H](O)[C@H](Cc1ccccc1)NC(=O)OCc1cncs1)S(=O)(=O)c1ccc2nc(N(C)C(=O)c3cccnc3)sc2c1 [Compound 153] | 0.339 µM | 0.0457 µM | 0.00741 µM |  |  |  | 
28 | CC(=O)NCCNc1nc2ccc(S(=O)(=O)N(CC(C)C)C[C@@H](O)[C@H](Cc3ccccc3)NC(=O)COc3c(C)cccc3C)cc2s1 [Compound 133] | 0.158 µM | 0.0339 µM | 0.0214 µM |  |  |  | 
29 | CC(C)CN(C[C@@H](O)[C@H](Cc1ccccc1)NC(=O)OCc1cncs1)S(=O)(=O)c1ccc2nc(NC(=O)[C@@H]3CCCN3C)sc2c1 [Compound 166] | 0.0741 µM | 0.0219 µM | 0.00631 µM |  |  |  | 
30 | Cc1cccc(C)c1OCC(=O)Nc1nc2ccc(S(=O)(=O)N(CC(C)C)C[C@@H](O)[C@H](Cc3ccccc3)NC(=O)COc3c(C)cccc3C)cc2s1 [Compound 145] | 0.145 µM | 0.0398 µM | 0.0126 µM |  |  |  | 
